Experimental data reported in patent US20260166159A1, “KRAS G12D DEGRADATION AGENT, AND PREPARATION METHOD AND USE THEREFOR” (LEADINGTAC PHARMACEUTICAL (SHAOXING) CO., LTD., priority 2022, published 2026).
Blank lines part the entries; values can stand above or below the compound they belong to.

Experiments:
[1] = test system: KRAS G12D mutant human lung cancer cell A427; assay: 3D cell proliferation inhibition assay, A427; assay type: cell-based; settings: A-427, 168 h, A427, 7 days, CTG
From the text: (§1) The inhibitory effects of the compounds on 3D cell proliferation were investigated on KRAS G12D mutant human lung cancer cell A427, KRAS G12D mutant human gastric cancer cell AGS, KRAS G12D mutant human metastatic pancreatic cancer cell AsPc-1, KRAS G12D mutant human pancreatic cancer cell Panc 04.03, KRAS G12D mutant human pancreatic cancer cell HPAC, KRAS G12V mutant human lung squamous cell carcinoma cell SW900, and KRAS WT human gastric cancer cell MKN1. The specific procedures were as follows:
(§2) 10 μL of each compound solution diluted in a gradient was added to corresponding wells of a 96-well low-adsorption microplate (PerkinElmer), so that the final concentrations of the test compounds in the reaction system were in a range of 10000-0.026 nM. The final concentration of DMSO was 0.2%. Then 90 µL of cells were correspondingly seeded into each well to achieve a cell density of 5×10^2 cells/well (the cell density of SW900 was 5×10^1 cells/well, and the cell density of MKN1 was 1×10^3 cells/well). In addition to test wells for the test compounds, both a DMSO control well and a medium control well were set, with the DMSO control well containing DMSO and cells and the medium well containing only a medium. After the sample loading, the 96-well low-adsorption microplate was incubated in an incubator at 37° C. with 5% carbon dioxide for 7 days. After 7 days, the microplate was taken out, and 100 μL of CTG reagent (Promega) was added to each well. The plate was incubated at room temperature for 60 min and read on a microplate reader EnVision by the chemiluminescence program. The inhibition rates of the compounds at each concentration were calculated using the formula for the percentage inhibition of cell proliferation: inhibition rate %=(mean value of DMSO control group−single concentration reading value of compound)/(mean value of DMSO control group−mean value of medium control group)×100. Then non-linear curve fittings for logarithmic concentration-inhibition rate were performed by GraphPad Prism 8, and the IC50 values of the compounds were obtained (Table 5).

KRAS-G12D = target: T1, KRAS-G12D (Homo sapiens, UniProt P01116, G12D); assay: KRAS-G12D degradation assay (Western Blot), A-427 cells; assay type: cell-based; settings: A427 cells, 24 h; for Dmax: A-427
T1 construct: endogenous in cells; host or cells: A-427 (ATCC), AGS, AsPc-1, Panc 04.03
Experimental: The degradation effects of the compounds on KRAS-G12D were investigated on KRAS G12D mutant human lung cancer cell A-427 (ATCC), KRAS G12D mutant human gastric cancer cell AGS, KRAS G12D mutant human metastatic pancreatic cancer cell AsPc-1, and KRAS G12D mutant human pancreatic adenocarcinoma cell Panc 04.03. The specific procedures were as follows: 0.95 mL of cells were seeded into each well of a 24-well cell culture plate to achieve a cell density of 5×10^5 cells/well; and the cell plate was incubated in an incubator at 37° C. with 5% CO2 overnight. Then 50 μL of the compound solution after dilution was added to each of the wells with the corresponding cells, so that the final concentration of the compound was in a range of 0.03-3000 nM. The final concentration of DMSO was 0.25%. After the compounds were added, the cell plate was incubated in the incubator at 37° C. with 5% CO2 for 24 h. The culture medium in the 24-well cell culture plate was removed, and the plate was washed twice with 1×PBS (KeyGEN). 120 μL of RIPA (strong) lysis buffer (Beyotime) supplemented with 1 mM phenylmethylsulfonyl fluoride, a protease inhibitor mixture (Beyotime), and a protease phosphatase inhibitor mixture (Beyotime) was added to lyse adherent A-427 cells at the bottom of the cell culture plate. After the plate was left to stand on ice for 30 min, the protein lysate in each well was transferred to a 1.5 mL centrifuge tube and centrifuged at 15000 g for 20 min at 4° C. The cell lysate supernatants after centrifugation were cryopreserved in a refrigerator at −80° C. for later use.
After the samples of the cell lysate supernatants that had been prepared were thawed from the refrigerator at −80° C., the total protein concentrations of the cell lysates were determined using a BCA protein quantification kit (Tiangen). The total protein concentrations of the samples were then adjusted to 0.5 μg/μL with PBS and 5×SDS-PAGE protein loading buffer (Beyotime), and the samples were incubated in a water bath at 100° C. for 15 min. The samples were then incubated in an ice bath for 5 min and centrifuged at 14000 g for 1 min at 4° C., and the supernatants were mixed well as loading samples for the Western Blot assay. The samples were loaded into wells of a 10% precast gel (KeyGEN) with a loading volume of 10 μL (total protein: 5 μg), a sufficient Tris-MOPS-SDS running buffer (Adamas) was added, and then electrophoresis was performed at a constant voltage of 120 V for 55 min. After the electrophoresis, the proteins on the gel were transferred to PVDF membranes at a constant current of 250 mA for 55 min. After the membrane transfer, the PVDF membranes were incubated in 1× Quick Block blocking buffer (Beyotime) at room temperature for 30 min. After the blocking, the PVDF membranes were separately incubated at 4° C. overnight with the KRAS antibody (Abcam) diluted in a ratio of 1:1000 and the […] antibody (Abcam) diluted in a ratio of 1:2000 in 5% BSA as the diluent, and then washed with 1×TBST buffer (2.4 g of Tris, 8.8 g of NaCl, 1.5 mL of Tween 20, with pH adjusted to 7.4, with the volume brought to 1 L) 3 times for 10 min/time. The membranes were incubated with a secondary antibody (Abcam) diluted in 5% BSA at room temperature for 2 h, and then washed with 1×TBST buffer 3 times for 10 min/time. Finally, the membranes were incubated with Clarity Western ECL Substrate (BIO-RAD) for 5 min for luminescence and color development, and a ChemiScope 6200 Touch chemiluminescence imaging system (Clinx) was used for color development and protein mapping. Gray value analysis of the protein maps was performed using the chemiluminescence analysis software (Clinx). The gray correction value for each sample was calculated using the formula: gray correction value=(gray value of target protein/gray value of corresponding internal reference)×10^3. Then degradation rates were calculated by comparison with the gray correction value of the control group. […]

[2] = test system: KRAS G12D mutant human gastric cancer cell AGS; assay: 3D cell proliferation inhibition assay, AGS; assay type: cell-based; settings: 168 h, 7 days, CTG
From the text: as §1, §2

[3] = target: T2, Human KRAS G12D 6His-tagged (Homo sapiens, UniProt P01116, G12D); assay: KRAS-G12D/GTP binding assay (HTRF); settings: numeric values
T2 construct: purchased PerkinElmer
Experimental: In this method, the inhibitory effects of the compounds on the binding of KRAS-G12D to GTP were assayed by a homogeneous time-resolved fluorescence (HTRF) technique using a KRAS-G12D/GTP binding assay kit (PerkinElmer).
The experimental procedures were as follows (refer to the kit instructions for detailed test methods): the compounds of the present disclosure were each firstly dissolved in DMSO at a concentration of 20 mM, and then diluted in an equal gradient with a buffer in the kit, so that the final concentrations of the test compounds in the reaction system were in a range of 0.02-5000 nM, and the final concentration of DMSO was 0.5%. 5 μL of each compound was incubated with 5 μL of 1× Human KRAS G12D 6His-tagged (PerkinElmer), 5 μL of 1×6His Eu Cryptate Antibody (PerkinElmer), and 5 μL of 1×GTP Red reagent (PerkinElmer) in a 384-well plate (Greiner) at 25° C. for 1 h. After the incubation was completed, the fluorescence intensity of each well was measured at the excitation wavelength of 337 nm and the emission wavelengths of 620 nm and 665 nm with an EnVision microplate reader (PerkinElmer) in the HTRF mode, and Ratio values were calculated using the formula: Ratio=(665 nm/620 nm)×[…]. The inhibition rates of the compounds at each concentration were calculated by comparing the fluorescence intensity ratio with that of the control group. Then non-linear curve fittings for logarithmic concentration-inhibition rate were performed using the GraphPad Prism 8 analysis software, and the IC50 values of the compounds were obtained (Table 2).

T1 sequence (P01116 1-188 isoform P01116-2 G12D): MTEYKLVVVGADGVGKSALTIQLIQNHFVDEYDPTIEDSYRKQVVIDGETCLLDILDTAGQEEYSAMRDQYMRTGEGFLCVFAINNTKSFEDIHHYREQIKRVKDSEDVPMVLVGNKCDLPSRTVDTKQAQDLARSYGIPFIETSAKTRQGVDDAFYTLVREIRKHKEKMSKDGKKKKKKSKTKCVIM
T2 sequence (P01116 1-188 isoform P01116-2 G12D): as above

SMILES: C#Cc1c(F)ccc2cc(O)cc(-c3ncc4c(N5CC6CCC(C5)N6)nc(NCC5(CN6CCN(CC7CCC8(CC7)CCN(C(=O)c7ccc(C)c(N9CCC(=O)NC9=O)c7)CC8)CC6)CC5)nc4c3F)c12 [Example 44, 1-(5-(9-((4-((1-(((4-(3,8-diazabicyclo[3.2.1]octan-3-yl)-7-(8-ethynyl-7-fluoro-3-hydroxynaphthalen-1-yl)-8-fluoropyrido[4,3-d]pyrimidin-2-yl)amino)methyl)cyclopropyl)methyl)piperazin-1-yl)methyl)-3-azaspiro[5.5]undecane-3-carbonyl)-2-methylphenyl)dihydropyrimidine-2,4(1H,3H)-dione]
IC50 ([1]; class symbols): 100 to 500 nM
DC50 (KRAS-G12D; class symbols): ≤ 50 nM
Dmax (KRAS-G12D; class symbols): 80 to 100%
IC50 ([2]; class symbols): ≤ 50 nM

SMILES: CCc1cccc2cc(O)cc(-c3ncc4c(N5CC6CCC(C5)N6)nc(NCC5(CN6CCN(CC7CCC8(CC7)CCN(C(=O)c7ccc(Cl)c(N9CCC(=O)NC9=O)c7)CC8)CC6)CC5)nc4c3F)c12 [Example 47, 1-(5-(9-((4-((1-(((4-(3,8-diazabicyclo[3.2.1]octan-3-yl)-7-(8-ethyl-3-hydroxynaphthalen-1-yl)-8-fluoropyrido[4,3-d]pyrimidin-2-yl)amino)methyl)cyclopropyl)methyl)piperazin-1-yl)methyl)-3-azaspiro [5.5]undecane-3-carbonyl)-2-chlorophenyl)dihydropyrimidine-2,4(1H,3H)-dione]
IC50 ([1]; class symbols): 50 to 100 nM
DC50 (KRAS-G12D; class symbols): 100 to 500 nM
Dmax (KRAS-G12D; class symbols): 50 to 80%
IC50 ([2]; class symbols): 50 to 100 nM

SMILES: C#Cc1c(F)ccc2cc(O)cc(-c3ncc4c(N5CC6CCC(C5)N6)nc(OCC5(CN6CCN(CC7CCC8(CC7)CCN(C(=O)c7ccc(F)c(N9CCC(=O)NC9=O)c7)CC8)CC6)CC5)nc4c3F)c12 [Example 48, 1-(5-(9-((4-((1-(((4-(3,8-diazabicyclo[3.2.1]octan-3-yl)-7-(8-ethynyl-7-fluoro-3-hydroxynaphthalen-1-yl)-8-fluoropyrido[4,3-d]pyrimidin-2-yl)oxy)methyl)cyclopropyl)methyl)piperazin-1-yl)methyl)-3-azaspiro[5.5]undecane-3-carbonyl)-2-fluorophenyl)dihydropyrimidine-2,4(1H,3H)-dione]
IC50 ([1]; class symbols): ≤ 50 nM
DC50 (KRAS-G12D; class symbols): ≤ 50 nM
Dmax (KRAS-G12D; class symbols): 80 to 100%
IC50 ([2]; class symbols): ≤ 50 nM

SMILES: CCc1cccc2cc(O)cc(-c3ccc4c(N5CC6CCC(C5)N6)nc(OCC5(CN6CCN(CC7CCC8(CC7)CCN(C(=O)c7ccc(Cl)c(N9CCC(=O)NC9=O)c7)CC8)CC6)CC5)nc4c3F)c12 [Example 62, 1-(5-(9-((4-((1-(((4-(3,8-diazabicyclo[3.2.1]octan-3-yl)-7-(8-ethyl-3-hydroxynaphthalen-1-yl)-8-fluoroquinazolin-2-yl)oxy)methyl)cyclopropyl)methyl)piperazin-1-yl)methyl)-3-azaspiro[5.5]undecane-3-carbonyl)-2-chlorophenyl)dihydropyrimidine-2,4(1H,3H)-dione]
IC50 ([1]; numeric values): 13.1 nM
DC50 (KRAS-G12D; numeric values): 15.8 nM
Dmax (KRAS-G12D; numeric values): 94.8%
IC50 ([2]; numeric values): 4.98 nM

IC50 [3]: 1.15 nM
SMILES: C#Cc1c(F)ccc2cc(O)cc(-c3ncc4c(N5CC6CCC(C5)N6)nc(OCC5(CN6CCC(O)(COCCC7CCN(C(=O)c8ccc(Cl)c(N9CCC(=O)NC9=O)c8)CC7)CC6)CC5)nc4c3F)c12 [Example 63]

SMILES: CCc1c(F)ccc2cc(O)cc(-c3ccc4c(N5CC6CCC(C5)N6)nc(OCC5(CN6CCN(CC7CCC8(CC7)CCN(C(=O)c7ccc(Cl)c(N9CCC(=O)NC9=O)c7)CC8)CC6)CC5)nc4c3F)c12 [Example 74, 1-(5-(9-((4-((1-(((4-(3,8-diazabicyclo[3.2.1]octan-3-yl)-7-(8-ethyl-7-fluoro-3-hydroxynaphthalen-1-yl)-8-fluoroquinazolin-2-yl)oxy)methyl)cyclopropyl)methyl)piperazin-1-yl)methyl)-3-azaspiro[5.5]undecane-3-carbonyl)-2-chlorophenyl)dihydropyrimidine-2,4(1H,3H)-dione]
IC50 ([1]; numeric values): 31.6 nM
DC50 (KRAS-G12D; numeric values): 38.1 nM
Dmax (KRAS-G12D; numeric values): 77%
IC50 ([2]; numeric values): 15.7 nM

SMILES: C#Cc1cccc2cc(O)cc(-c3ccc4c(N5CC6CCC(C5)N6)nc(OCC5(CN6CCN(CC7CCC8(CC7)CCN(C(=O)c7ccc(OC)c(N9CCC(=O)NC9=O)c7)CC8)CC6)CC5)nc4c3F)c12 [Example 76, 1-(5-(9-((4-((1-(((4-(3,8-diazabicyclo[3.2.1]octan-3-yl)-7-(8-ethynyl-3-hydroxynaphthalen-1-yl)-8-fluoroquinazolin-2-yl)oxy)methyl)cyclopropyl)methyl)piperazin-1-yl)methyl)-3-azaspiro[5.5]undecane-3-carbonyl)-2-methoxyphenyl)dihydropyrimidine-2,4(1H,3H)-dione]
IC50 ([1]; numeric values): 74.8 nM
DC50 (KRAS-G12D; numeric values): 1.74 nM
Dmax (KRAS-G12D; numeric values): 89.3%
IC50 ([2]; numeric values): 9.53 nM
